Key:
[1] = target: Tyrosine-protein kinase Yes (Homo sapiens) (UniProt P07947); experiment: Inhibition of human recombinant YES at 40 nM in presence of ATP by radiometric assay relative to control
[2] = target: T1, Bone morphogenetic protein receptor type-2 (Homo sapiens) (UniProt Q13873); experiment: Inhibition of human recombinant BMPR2 at 40 nM related to control ULK1
T1 sequence (whole entry): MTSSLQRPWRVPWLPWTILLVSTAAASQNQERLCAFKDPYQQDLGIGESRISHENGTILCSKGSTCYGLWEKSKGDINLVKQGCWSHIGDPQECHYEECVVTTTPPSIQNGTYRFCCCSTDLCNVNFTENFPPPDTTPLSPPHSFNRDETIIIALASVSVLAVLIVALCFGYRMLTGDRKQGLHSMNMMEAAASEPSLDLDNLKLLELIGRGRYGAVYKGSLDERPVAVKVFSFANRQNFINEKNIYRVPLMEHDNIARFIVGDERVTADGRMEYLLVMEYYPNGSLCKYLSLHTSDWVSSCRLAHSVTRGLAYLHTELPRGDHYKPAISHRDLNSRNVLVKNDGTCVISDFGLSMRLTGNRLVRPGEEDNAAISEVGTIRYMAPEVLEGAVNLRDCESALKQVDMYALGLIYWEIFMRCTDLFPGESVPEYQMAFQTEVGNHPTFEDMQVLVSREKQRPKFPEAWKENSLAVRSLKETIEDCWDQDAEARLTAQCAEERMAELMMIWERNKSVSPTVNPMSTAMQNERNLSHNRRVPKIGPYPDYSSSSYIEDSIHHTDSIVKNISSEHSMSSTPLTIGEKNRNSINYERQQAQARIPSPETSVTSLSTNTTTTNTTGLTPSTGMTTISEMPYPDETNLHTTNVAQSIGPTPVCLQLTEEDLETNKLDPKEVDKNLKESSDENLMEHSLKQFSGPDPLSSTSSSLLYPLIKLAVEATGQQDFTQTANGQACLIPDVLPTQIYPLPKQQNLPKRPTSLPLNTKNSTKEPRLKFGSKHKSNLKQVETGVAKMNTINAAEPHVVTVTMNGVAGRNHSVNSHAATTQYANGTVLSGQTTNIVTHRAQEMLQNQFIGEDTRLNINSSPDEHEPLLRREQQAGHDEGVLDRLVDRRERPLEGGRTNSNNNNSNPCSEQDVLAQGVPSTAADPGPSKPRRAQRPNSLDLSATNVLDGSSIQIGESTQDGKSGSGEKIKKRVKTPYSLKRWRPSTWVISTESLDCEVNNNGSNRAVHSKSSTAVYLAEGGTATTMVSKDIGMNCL

[3] = target: MAP kinase-interacting serine/threonine-protein kinase 2 (Homo sapiens, UniProt Q9HBH9); experiment: Inhibition of human recombinant MNK2 at 500 nM in presence of ATP by radiometric assay relative to control
Sequence of MAP kinase-interacting serine/threonine-protein kinase 2 (Q9HBH9 whole entry, looked up): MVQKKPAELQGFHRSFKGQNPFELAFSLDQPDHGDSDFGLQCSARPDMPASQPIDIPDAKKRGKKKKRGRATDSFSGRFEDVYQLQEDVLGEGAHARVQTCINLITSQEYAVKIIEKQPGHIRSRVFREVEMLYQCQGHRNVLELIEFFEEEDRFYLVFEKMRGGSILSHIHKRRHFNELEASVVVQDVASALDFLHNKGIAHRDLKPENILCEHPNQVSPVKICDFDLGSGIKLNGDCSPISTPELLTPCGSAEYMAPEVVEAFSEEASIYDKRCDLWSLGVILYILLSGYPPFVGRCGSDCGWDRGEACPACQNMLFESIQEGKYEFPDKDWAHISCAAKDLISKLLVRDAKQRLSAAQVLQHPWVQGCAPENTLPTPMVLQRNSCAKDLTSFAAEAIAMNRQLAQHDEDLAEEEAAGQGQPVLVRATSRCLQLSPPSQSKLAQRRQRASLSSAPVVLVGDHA

[4] = target: Ribosomal protein S6 kinase alpha-2 (Homo sapiens) (UniProt Q15349); experiment: Inhibition of human recombinant RSK3 at 500 nM in presence of ATP by radiometric assay relative to control
Sequence of Ribosomal protein S6 kinase alpha-2 (Homo sapiens) (Q15349 whole entry): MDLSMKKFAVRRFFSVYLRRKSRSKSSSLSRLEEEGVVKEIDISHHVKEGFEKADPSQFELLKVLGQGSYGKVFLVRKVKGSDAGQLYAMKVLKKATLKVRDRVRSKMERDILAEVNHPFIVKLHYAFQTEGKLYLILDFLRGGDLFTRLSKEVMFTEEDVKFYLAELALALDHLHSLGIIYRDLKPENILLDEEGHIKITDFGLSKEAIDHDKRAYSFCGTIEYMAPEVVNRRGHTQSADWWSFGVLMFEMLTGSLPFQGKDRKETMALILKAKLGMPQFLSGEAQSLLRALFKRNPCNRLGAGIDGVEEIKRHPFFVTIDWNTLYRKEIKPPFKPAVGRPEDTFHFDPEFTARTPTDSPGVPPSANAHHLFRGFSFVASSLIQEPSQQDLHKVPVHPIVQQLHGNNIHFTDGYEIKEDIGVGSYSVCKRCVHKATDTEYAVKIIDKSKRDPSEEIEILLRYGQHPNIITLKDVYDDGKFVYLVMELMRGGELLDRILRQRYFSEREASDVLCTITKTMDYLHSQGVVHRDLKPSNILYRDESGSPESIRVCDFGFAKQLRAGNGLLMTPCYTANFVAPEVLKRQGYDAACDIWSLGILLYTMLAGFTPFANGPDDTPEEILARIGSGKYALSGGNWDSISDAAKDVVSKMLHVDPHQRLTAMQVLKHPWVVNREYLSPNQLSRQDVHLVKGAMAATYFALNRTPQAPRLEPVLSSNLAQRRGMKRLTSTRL

[5] = target: Calcium/calmodulin-dependent protein kinase type II subunit beta (Homo sapiens) (UniProt Q13554); experiment: Inhibition of human recombinant CaMK2b at 500 nM in presence of ATP by radiometric assay relative to control
Sequence of Calcium/calmodulin-dependent protein kinase type II subunit beta (Homo sapiens) (Q13554 whole entry): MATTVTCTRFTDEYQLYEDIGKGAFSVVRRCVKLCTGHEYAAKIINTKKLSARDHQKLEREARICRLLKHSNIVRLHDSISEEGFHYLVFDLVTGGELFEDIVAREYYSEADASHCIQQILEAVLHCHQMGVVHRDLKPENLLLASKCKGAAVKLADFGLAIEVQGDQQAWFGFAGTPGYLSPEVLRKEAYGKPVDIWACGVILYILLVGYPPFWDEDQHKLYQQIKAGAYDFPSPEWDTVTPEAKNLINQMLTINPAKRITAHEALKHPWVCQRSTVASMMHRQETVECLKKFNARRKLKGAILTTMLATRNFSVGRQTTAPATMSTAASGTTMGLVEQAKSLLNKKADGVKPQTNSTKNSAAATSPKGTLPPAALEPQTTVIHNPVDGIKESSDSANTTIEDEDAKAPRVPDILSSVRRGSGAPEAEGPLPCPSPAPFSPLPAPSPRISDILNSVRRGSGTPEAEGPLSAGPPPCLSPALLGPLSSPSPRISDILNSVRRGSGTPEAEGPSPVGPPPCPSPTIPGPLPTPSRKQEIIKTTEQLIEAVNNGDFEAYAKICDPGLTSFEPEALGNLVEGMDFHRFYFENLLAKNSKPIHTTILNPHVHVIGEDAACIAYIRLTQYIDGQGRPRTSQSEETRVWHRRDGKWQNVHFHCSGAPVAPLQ

[6] = target: T2, Serine/threonine-protein kinase STK11 (Homo sapiens) (UniProt Q15831); experiment: Inhibition of human recombinant LKB1 at 15 nM related to control ULK1
T2 sequence (whole entry): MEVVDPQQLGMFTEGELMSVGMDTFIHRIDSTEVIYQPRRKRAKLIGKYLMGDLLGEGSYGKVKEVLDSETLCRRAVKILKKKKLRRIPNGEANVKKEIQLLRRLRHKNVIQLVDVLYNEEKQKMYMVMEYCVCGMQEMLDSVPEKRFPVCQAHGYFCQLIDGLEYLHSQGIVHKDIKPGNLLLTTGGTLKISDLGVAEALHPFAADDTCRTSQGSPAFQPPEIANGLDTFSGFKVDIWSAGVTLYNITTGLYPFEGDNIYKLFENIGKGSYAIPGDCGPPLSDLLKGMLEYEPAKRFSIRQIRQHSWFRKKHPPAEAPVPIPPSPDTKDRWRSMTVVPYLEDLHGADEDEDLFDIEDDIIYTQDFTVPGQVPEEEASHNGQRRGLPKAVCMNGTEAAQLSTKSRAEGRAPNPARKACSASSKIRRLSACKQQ

[7] = target: Dual specificity protein kinase CLK1 (Homo sapiens) (UniProt P49759); experiment: Inhibition of human recombinant CLK1 at 15 nM in presence of ATP by radiometric assay relative to control
Sequence of Dual specificity protein kinase CLK1 (Homo sapiens) (P49759 whole entry, looked up): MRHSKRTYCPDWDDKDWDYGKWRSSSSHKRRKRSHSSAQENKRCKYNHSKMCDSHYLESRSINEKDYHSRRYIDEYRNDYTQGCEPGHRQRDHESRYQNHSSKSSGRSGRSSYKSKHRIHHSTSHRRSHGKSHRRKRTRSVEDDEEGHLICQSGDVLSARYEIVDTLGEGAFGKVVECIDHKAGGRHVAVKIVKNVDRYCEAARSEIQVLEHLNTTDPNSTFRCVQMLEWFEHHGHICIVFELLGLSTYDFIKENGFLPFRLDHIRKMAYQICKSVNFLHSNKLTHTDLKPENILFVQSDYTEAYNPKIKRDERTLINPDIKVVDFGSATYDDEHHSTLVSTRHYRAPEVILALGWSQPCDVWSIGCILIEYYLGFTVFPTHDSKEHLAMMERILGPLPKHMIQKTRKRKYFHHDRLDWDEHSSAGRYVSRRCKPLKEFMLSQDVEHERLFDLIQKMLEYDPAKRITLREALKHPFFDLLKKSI

[8] = target: Rho-associated protein kinase 2 (Homo sapiens) (UniProt O75116); experiment: Inhibition of human recombinant ROCK2 at 15 nM in presence of ATP by radiometric assay relative to control
Sequence of Rho-associated protein kinase 2 (Homo sapiens) (O75116 whole entry, looked up): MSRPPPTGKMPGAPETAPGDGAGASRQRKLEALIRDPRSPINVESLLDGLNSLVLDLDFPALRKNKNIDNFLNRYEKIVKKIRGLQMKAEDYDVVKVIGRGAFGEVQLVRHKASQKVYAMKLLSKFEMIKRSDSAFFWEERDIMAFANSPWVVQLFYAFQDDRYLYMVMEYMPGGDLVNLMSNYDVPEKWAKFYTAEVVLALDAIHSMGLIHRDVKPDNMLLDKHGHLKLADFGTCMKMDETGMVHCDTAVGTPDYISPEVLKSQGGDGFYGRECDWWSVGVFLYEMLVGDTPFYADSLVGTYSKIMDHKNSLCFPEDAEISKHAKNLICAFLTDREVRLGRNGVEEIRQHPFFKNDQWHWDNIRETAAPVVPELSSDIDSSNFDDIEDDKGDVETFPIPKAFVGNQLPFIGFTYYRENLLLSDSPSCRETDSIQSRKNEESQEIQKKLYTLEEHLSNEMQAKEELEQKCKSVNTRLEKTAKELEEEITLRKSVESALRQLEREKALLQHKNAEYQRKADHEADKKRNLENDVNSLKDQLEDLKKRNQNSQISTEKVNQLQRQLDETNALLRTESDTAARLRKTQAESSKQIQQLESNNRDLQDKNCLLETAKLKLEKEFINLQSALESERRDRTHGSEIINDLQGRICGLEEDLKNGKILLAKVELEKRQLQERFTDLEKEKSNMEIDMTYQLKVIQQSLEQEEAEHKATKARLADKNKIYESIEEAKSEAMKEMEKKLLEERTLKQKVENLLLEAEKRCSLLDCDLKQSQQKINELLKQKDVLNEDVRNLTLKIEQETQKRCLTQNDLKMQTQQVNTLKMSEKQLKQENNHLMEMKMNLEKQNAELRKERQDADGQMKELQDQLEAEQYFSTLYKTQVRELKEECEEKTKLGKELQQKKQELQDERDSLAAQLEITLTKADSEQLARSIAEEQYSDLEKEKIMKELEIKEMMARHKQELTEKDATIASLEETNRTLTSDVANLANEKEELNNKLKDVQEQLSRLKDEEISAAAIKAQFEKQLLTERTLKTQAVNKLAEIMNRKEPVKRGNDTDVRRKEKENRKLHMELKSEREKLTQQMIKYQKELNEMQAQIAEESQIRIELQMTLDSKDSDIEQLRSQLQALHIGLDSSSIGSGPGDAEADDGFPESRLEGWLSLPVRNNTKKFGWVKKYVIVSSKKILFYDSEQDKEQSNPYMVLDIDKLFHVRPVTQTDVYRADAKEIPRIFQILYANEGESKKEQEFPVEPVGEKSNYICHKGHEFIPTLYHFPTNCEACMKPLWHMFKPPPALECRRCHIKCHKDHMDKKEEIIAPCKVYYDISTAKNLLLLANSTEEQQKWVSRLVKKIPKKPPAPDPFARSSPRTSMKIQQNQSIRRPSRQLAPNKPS

[9] = target: T3, Serine/threonine-protein kinase 17A (Homo sapiens) (UniProt Q9UEE5); experiment: Inhibition of human recombinant DRAK1 at 15 nM in presence of ATP by radiometric assay relative to control
T3 sequence (whole entry): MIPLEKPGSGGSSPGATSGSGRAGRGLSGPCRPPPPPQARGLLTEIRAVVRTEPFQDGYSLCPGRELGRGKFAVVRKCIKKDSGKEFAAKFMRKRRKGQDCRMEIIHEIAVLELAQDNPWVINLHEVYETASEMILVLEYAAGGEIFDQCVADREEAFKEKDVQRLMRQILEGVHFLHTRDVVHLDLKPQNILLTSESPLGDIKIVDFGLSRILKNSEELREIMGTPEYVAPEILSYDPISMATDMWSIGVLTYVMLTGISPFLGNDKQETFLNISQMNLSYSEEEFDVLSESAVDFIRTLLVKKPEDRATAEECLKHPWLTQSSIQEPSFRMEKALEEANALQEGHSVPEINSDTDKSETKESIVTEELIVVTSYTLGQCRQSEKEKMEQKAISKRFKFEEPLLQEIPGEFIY

[10] = target: LIM domain kinase 1 (Homo sapiens) (UniProt P53667); experiment: Inhibition of human recombinant LIMK1 at 15 nM in presence of ATP by radiometric assay relative to control
Sequence of LIM domain kinase 1 (Homo sapiens) (P53667 whole entry, looked up, the tested form may be a part): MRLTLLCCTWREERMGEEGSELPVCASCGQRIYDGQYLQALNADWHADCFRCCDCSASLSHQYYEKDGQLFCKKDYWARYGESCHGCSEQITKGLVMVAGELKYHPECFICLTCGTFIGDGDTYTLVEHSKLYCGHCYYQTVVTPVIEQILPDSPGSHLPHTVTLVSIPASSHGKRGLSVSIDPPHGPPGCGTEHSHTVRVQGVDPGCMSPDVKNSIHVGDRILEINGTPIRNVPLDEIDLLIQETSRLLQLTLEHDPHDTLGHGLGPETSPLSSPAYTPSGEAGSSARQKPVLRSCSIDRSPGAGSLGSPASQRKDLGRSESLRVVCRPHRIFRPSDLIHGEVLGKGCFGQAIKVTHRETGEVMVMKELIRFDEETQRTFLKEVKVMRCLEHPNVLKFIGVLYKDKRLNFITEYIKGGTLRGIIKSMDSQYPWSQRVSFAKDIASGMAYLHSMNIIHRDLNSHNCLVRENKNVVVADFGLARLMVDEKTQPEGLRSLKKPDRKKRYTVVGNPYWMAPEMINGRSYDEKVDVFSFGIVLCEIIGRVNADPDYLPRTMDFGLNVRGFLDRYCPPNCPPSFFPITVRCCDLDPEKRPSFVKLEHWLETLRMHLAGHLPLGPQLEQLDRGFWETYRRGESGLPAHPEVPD

Sequence of Tyrosine-protein kinase Yes (Homo sapiens) (P07947 2-543 limits assumed): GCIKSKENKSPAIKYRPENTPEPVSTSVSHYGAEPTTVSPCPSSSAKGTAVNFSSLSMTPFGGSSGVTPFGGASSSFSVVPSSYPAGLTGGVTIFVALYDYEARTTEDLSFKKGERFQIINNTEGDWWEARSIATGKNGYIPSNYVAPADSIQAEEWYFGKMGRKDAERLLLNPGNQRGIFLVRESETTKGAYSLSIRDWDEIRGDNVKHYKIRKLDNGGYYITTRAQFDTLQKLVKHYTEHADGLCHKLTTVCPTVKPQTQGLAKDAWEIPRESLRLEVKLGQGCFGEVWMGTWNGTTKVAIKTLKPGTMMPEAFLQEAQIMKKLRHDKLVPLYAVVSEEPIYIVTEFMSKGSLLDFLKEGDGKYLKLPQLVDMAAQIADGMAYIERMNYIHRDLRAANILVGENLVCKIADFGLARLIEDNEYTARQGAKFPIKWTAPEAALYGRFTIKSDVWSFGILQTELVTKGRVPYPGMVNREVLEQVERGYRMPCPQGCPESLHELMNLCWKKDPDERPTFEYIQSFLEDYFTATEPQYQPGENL

O=C(N[C@@H](C1CC1)C(F)(F)F)c1cc(-c2cnn3cc(-c4ccc(F)cc4)cnc23)cs1
inhibition [1]: 23% | fold change (FC) [2]: 0.08

CNC(=O)c1ccccc1Oc1nc(Nc2cc(OC)c(OC)c(OC)c2)ncc1Br
inhibition [3]: 2% | inhibition [4]: 49% | inhibition [5]: 0%

CC(C)[C@H](NC(=O)c1cc(-c2cnn3cc(-c4ccc(OCCN5CCCCC5)cc4)cnc23)cs1)C(F)(F)F
fold change (FC) [6]: 0 | inhibition [7]: 84% | inhibition [8]: 0% | inhibition [9]: 71% | inhibition [10]: 56%

Reference: ChEMBL document CHEMBL5653631, “A Potent and Selective ULK1 Inhibitor Suppresses Autophagy and Sensitizes Cancer Cells to Nutrient Stress” (iScience, 2018)
